Measurements reported in patent publication US9226904B2, “Pharmacological treatment of Parkinson's disease” (The United States of America as Represented by the …, priority 2006, dated 2016).

Key:
[1] = system: hemi-lesioned 6-OHDA-treated rat; assay: Rotational activity (contralateral turns) in hemi-lesioned 6-OHDA-treated rat model of Parkinson's disease; assay type: in vivo; conditions: for contralateral turning after D1 agonist SKF 38393 (0.1 mg/kg) on test day: 14 days R(+)-8-OHDPAT 0.3 mg/kg or vehicle, then same plus SKF 38393 0.1 mg/kg on test day, observed 3 hr, FIG. 2, p<0.005
Description: Rats were rendered parkinsonian on one side of the brain by unilateral destruction of nigrostriatal dopamine neurons using the selective neurotoxin 6-OHDA and stereotaxic procedures. Animals were allowed to recover for at least 2 weeks following this procedure. Animals were then screened for efficacy of the lesion by subcutaneous injection of L-DOPA (25 mg/kg) plus the decarboxylase inhibitor benserazide (6.25 mg/kg) followed by assessment of motor activity.
Anti-parkinsonian action in the hemi-lesioned 6-OHDA-treated rat model was assessed by the elicitation of rotational activity to the side opposite the lesioned hemisphere (contralateral turns) following drug treatment. The number of contralateral turns was assessed by videotape recording of animals and counting the number of turns.
One group (controls) received a daily subcutaneous injection of vehicle (0.9% saline containing 0.1 mg/kg ascorbate; 1 ml/kg) for 14 days and the other group (8-OHDPAT) received a daily subcutaneous injection of R(+)-8-OHDPAT (0.3 mg/kg in 1 ml/kg volume) for 14 days. Beginning on day 15, both groups of rats were tested for motor activity and dyskinetic activity in response to the D1 receptor partial agonist SKF 38393 or the D2 receptor agonist quinpirole. Such testing was carried out in a randomized fashion with different doses of dopamine agonist being tested every 4th day (e.g. 3 days between dopamine agonist administration). Throughout this testing phase the control group continued to receive daily injection of vehicle and the 8-OHDPAT group continued to receive daily injection of 0.3 mg/kg R(+)-8-OHDPAT. On days when dopamine agonists were tested the vehicle or R(+)-8-OHDPAT was administered simultaneously with the dopamine agonist.

[2] = system: hemi-lesioned 6-OHDA-treated rat; assay: Observer assessment of motor dyskinesias (dyskinesia index) during rotational test; assay type: in vivo; conditions: repeated R(+)-8-OHDPAT administration, 3 hr rotational test
Description: Observer assessment of motor dyskinesias was carried out be viewing the videotaped recording of rats during testing for rotational activity. A dyskinesia score was generated at 10 minute intervals throughout the course of the rotational test (generally 3 hr). Dyskinesia scores were based on the following scale: 0-no evidence of abnormal activity; 1 mild, intermittent forelimb dyskinesia; 2-severe, more persistent forelimb dyskinesia associated with animal directing activity toward forelimb; 3-severe limb and axial dyskinesia associated with loss of balance and consistent “barrel-rolling” activity. The dyskinesia scores that were obtained were averaged to generate a dyskinesia index.
The experiments described in this example were conducted as described above. A dyskinesia index for each animal was determined during a 3 hr rotational test.

[3] = system: hemi-lesioned 6-OHDA-treated rat; assay: Rotational activity (contralateral turns) in hemi-lesioned 6-OHDA-treated rat model of Parkinson's disease; assay type: in vivo; conditions: for rotational response on day 15 of once daily administration: SKF 38393 0.1, 0.3 or 1.0 mg/kg with vehicle or with R(+)-8-OHDPAT 0.3 mg/kg, once daily 15 days, FIG. 10; for direction of turning elicited: daily s.c. dosing, R(+)-8-OHDPAT 0.3 mg/kg
[4] = system: ΔFosB; assay: Immunoblot of ΔFosB in denervated striatum of unilateral 6-OHDA-lesioned rats; assay type: in vivo, rat; conditions: once daily for 15 days; L-DOPA 25 mg/kg plus 6.25 mg/kg benserazide; SKF 38393 1 mg/kg; R(+)-8-OHDPAT 0.3 mg/kg concomitant with SKF 38393; FIG. 9; p<0.05
Description: To test whether a drug-related rise in ΔFosB contributes to dyskinesias elicited by repeated L-DOPA treatment, ΔFosB levels were assessed by immunoblotting. FIG. 8 provides an image of a typical blot. […] Thus a significant target of the treatments of the present invention is contemplated to be ΔFosB in the striatum. Even so, knowledge of the mechanism(s) is not necessary in order to make and use the present invention.

[5] = coadministration with levodopa; Bibbiani et al., Neurology 2001; cited from earlier work
[6] = L-DOPA 10 mg/kg + 6.25 mg/kg benserazide, FIG. 1

| Structure (SMILES) | contralateral turning after D1 agonist SKF 38393 (0.1 mg/kg) on test day [1] | rotational response on day 15 of once daily administration [3] | direction of turning elicited [3, 6] | ΔFosB in the denervated striatum [4] | other results |
| --- | --- | --- | --- | --- | --- |
| COc1ccccc1N1CCN(CCN(C(=O)C2CCCCC2)c2ccccn2)CC1 [WAY 100635] |  |  |  |  | effect of 5-HT1A antagonist pretreatment on R(+)-8-OHDPAT-facilitated anti-parkinsonian action of SKF 38393 ([1]; WAY 100635 0.1 mg/kg on test day prior to R(+)-8-OHDPAT 0.3 mg/kg plus SKF 38393 0.3 mg/kg, at least 14 days daily R(+)-8-OHDPAT, FIG. 7): blocked the facilitating effects |
| CCCN(CCC)C1CCc2cccc(O)c2C1 (stereo not drawn) [R(+)-8-OHDPAT, 8-hydroxy-2-(di-n-propylamino)tetralin] | pronounced contralateral turning | significantly greater contralateral turning response | ipsilateral turning could be elicited | prevents the D1 agonist-induced rise in ΔFosB | anti-parkinsonian action (contralateral turning), chronic and concomitant versus acute administration ([1]; 14 day pretreatment with R(+)-8-OHDPAT 0.3 mg/kg plus concomitant R(+)-8-OHDPAT+SKF 38393 0.3 mg/kg on test day, FIG. 4, p<0.001): significant anti-parkinsonian action greater than all other treatment groups; contralateral turning after D2 agonist quinpirole (0.05 mg/kg) on test day ([1]; 14 days R(+)-8-OHDPAT 0.3 mg/kg, then R(+)-8-OHDPAT plus quinpirole 0.05 mg/kg on test day, vs vehicle plus quinpirole, 3 hr, FIG. 3, p<0.001): significantly greater contralateral turning; dyskinetic behavior (dyskinesia index) elicited by SKF 38393 (3.0 mg/kg) ([2]; FIG. 5): reduced dyskinetic behavior; dyskinetic behavior (dyskinesia index) elicited by quinpirole (0.05 mg/kg) ([2]; FIG. 6): reduced dyskinetic behavior; rotational response, pre-screened (primed) versus non-pre-screened (unprimed) rats ([3]; 15 days once daily R(+)-8-OHDPAT 0.3 mg/kg plus SKF 38393 0.3 mg/kg, FIG. 11): no significant difference |
| Fc1ccc(-c2cncc(CNC[C@H]3CCc4ccccc4O3)c2)cc1 [sarizotan] |  |  |  |  | motor complications of levodopa treatment [5]: reduced motor complications |
| Oc1cc2c(cc1O)C(c1ccccc1)CNCC2 (stereo not drawn) [SKF 38393] | no contralateral turning | little net contralateral turning |  | significant increase |  |
| N[C@@H](Cc1ccc(O)c(O)c1)C(=O)O [L-DOPA, levodopa] |  |  | almost exclusively contralateral turning | significant increase | contralateral turning on Day 15 relative to Day 1 ([3]; repeated daily s.c. dosing, L-DOPA 10 mg/kg + 6.25 mg/kg benserazide, R(+)-8-OHDPAT 0.3 mg/kg where given, FIG. 1): approximately 3 fold; coordination of the turning response (observed, not quantified) ([3]; upon repeated daily administration, L-DOPA 10 mg/kg + benserazide, R(+)-8-OHDPAT 0.3 mg/kg where given): progressively more uncoordinated |
